The data set in a line: 28-day oral toxicity study: body weights. It is filed as in vivo, male Sprague Dawley rats. As to the method:
3.6. Procedure for test item administration
intragastric cannula attached to a 3 mL syringe.
3.7. Observation of animals
groups: Day 29; recovery groups: Day 43).
(Appendix C Study Data Spreadsheets).
report (Appendix C Study Data Spreadsheets). […]

Square brackets hold non-standard residues; d marks the D form. Peptide text beside a SMILES is read from it. 2Nal = N[C@@H](Cc1ccc2ccccc2c1)C(=O)O

In the case of `CC(C)C[C@@H]1NC(=O)[C@H](Cc2ccc3ccccc3c2)NC(=O)[C@H](CCCNC(=N)N)NC(=O)[C@H](Cc2ccc3ccccc3c2)NC(=O)[C@H](CO)NC1=O` [c2, cyclo-((2-Nal)-Leu-Ser-(2-Nal)-Arg)] (cyclo([2Nal]LS[2Nal]R)), the “percentage body weight gain” value (4-week observation period, Gr 2, 1 mg/kg) is 55.4 ± 8.84%. The “body weight gains vs vehicle control” value (28-day and 42-day experimental period) was “comparable”. For the same molecule, the Mean body weight amounted to 261 ± 14.0 g (Day 1, Gr 2, 1 mg/kg); 257 ± 11.3 g (Day 1, Grs 3 & 5, 20 mg/kg); 312 ± 15.3 g (Day 8, Gr 2, 1 mg/kg); 312 ± 14.1 g (Day 8, Grs 3 & 5, 20 mg/kg); 356 ± 22.3 g (Day 15, Gr 2, 1 mg/kg); 354 ± 20.8 g (Day 15, Grs 3 & 5, 20 mg/kg). This molecule also displayed a Mean body weight (Day 22, Gr 2, 1 mg/kg) of 387 ± 24.9 g; a Mean body weight (Day 22, Grs 3 & 5, 20 mg/kg) of 392 ± 24.5 g; a Mean body weight (Day 28, Gr 2, 1 mg/kg) of 406 ± 31.0 g; a Mean body weight (Day 28, Grs 3 & 5, 20 mg/kg) of 414 ± 27.3 g; a Mean body weight (Day 29 after overnight fasting, Gr 2, 1 mg/kg) of 395 ± 28.0 g; a Mean body weight (Day 29 after overnight fasting, Gr 3, 20 mg/kg) of 395 ± 31.5 g. Besides, the Mean body weight came to 458 ± 12.0 g (Day 36, Gr 5 recovery, 20 mg/kg); 480 ± 11.6 g (Day 42, Gr 5 recovery, 20 mg/kg); 460 ± 12.3 g (Day 43 after overnight fasting, Gr 5 recovery, 20 mg/kg). Further, the body weight gain (Week 1, Gr 2, 1 mg/kg) stood at 19.6 ± 2.49%.

The values above are taken from publication PMC12876990, “Targeting secreted PLA2 interactions with EGFR and vimentin to arrest prostate tumour growth” (Cell Death & Disease, 2025).
